Assay results as given in patent US20240067632A1, “WEE1 Degrading Compounds and Uses Thereof” (Bristol-Myers Squibb Company, priority 2022, published 2024).

Legend:
MKN45 cells = assay: MKN45 cell proliferation assay (Cell-Titer-Glo, 120 h); format: cell-based; conditions: for EC50: Homo sapiens, MKN-45, 120 h, Cell-Titer-Glo, growth inhibition, read-out: MKN45 Cell Prolif. 120 hr (EC50); for MKN45 Cell Prolif. 120 hr (Ymin-Obs): minimal percent of DMSO control observed in the concentrations tested
Method in brief: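 Growth inhibition was read as blank-corrected Cell-Titer-Glo luminescence expressed as percent DMSO control after 120 h at 37 C, 400 cells/well. Compounds tested in triplicate as 10-point half-log series from 1 or 10 uM, 0.1% DMSO; four-parameter fit gave EC50, and lowest observed percent control was reported as Ymin-obs.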

WEE1 = biological target: T1, WEE1 (Homo sapiens, UniProt P30291+Q96SW2); assay: WEE1-ePL degradation assay (LentiX-WEE1-ePL-GSPT1-ND cells, InCELL Hunter luminescence, 4 h); format: cell-based; conditions: 293T-LentiX WEE1-ePL cells; for 293T-LentiX WEE1-ePL Degradation 4 hr (Ymin): lower limit of the fit (0 = luciferase inhibitor, Ymax = DMSO control); for DC50: read-out: 293T-LentiX WEE1-ePL Degradation 4 hr (EC50)
T1 construct: C-terminal ePL-tagged (DiscoverX, Fremont, CA) full-length WEE1 expression construct; expressed in transfected cells; host or cells: LentiX-HEK293T (Invitrogen), lentiviral transduction; co-expressing GSPT1-GN (G576N, lacking the first 158 amino acids)
Method in brief: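 First, compounds were pre-plated as 10-point, 3-fold dilutions (top 1 uM or 10 uM) with DMSO control; next, WEE1-ePL-expressing HEK293T cells were added and held 4 h at 37 °C; finally, InCELL Hunter reagent was applied for 30 min before luminescence reading. A 4PL fit gave EC50 and Ymin.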

| EC50 (MKN45 cells) [µM] | 293T-LentiX WEE1-ePL Degradation 4 hr (Ymin) (WEE1) | DC50 (WEE1) [µM] | SMILES | MKN45 Cell Prolif. 120 hr (Ymin-Obs) (MKN45 cells) |
| --- | --- | --- | --- | --- |
| > 10 | 70 | 0.558 | O=C1CCC(N2Cc3cc(O[C@H]4CCN(Cc5ccc6c(c5)NC(=O)CO6)C4)ccc3C2=O)C(=O)N1 (stereo partly drawn) [3-(1-oxo-5-{[(3S)-1-[(3-oxo-3,4-dihydro-2H-1,4-benzoxazin-6-yl)methyl]pyrrolidin-3-yl]oxy}-2,3-dihydro-1H-isoindol-2-yl)piperidine-2,6-dione] | 88.425 |
| 0.00609 | 37 | 0.0032 | O=C1CCC(N2Cc3cc(O[C@H]4CCN(Cc5ccc6nc(N7C[C@H]8CCO[C@H]8C7)ccc6c5)C4)ccc3C2=O)C(=O)N1 (stereo partly drawn) [3-(5-{[(3S)-1-({2-[(3aR,6aR)-hexahydro-2H-furo[2,3-c]pyrrol-5-yl]quinolin-6-yl}methyl)pyrrolidin-3-yl]oxy}-1-oxo-2,3-dihydro-1H-isoindol-2-yl)piperidine-2,6-dione] | 14.13 |
| 0.0449 | 42 | 0.00971 | Cc1cc(CN2CC[C@H](Oc3ccc4c(c3)CN(C3CCC(=O)NC3=O)C4=O)C2)ncc1OCC1CCOCC1 (stereo partly drawn) [3-(5-{[(3S)-1-({4-methyl-5-[(oxan-4-yl)methoxy]pyridin-2-yl}methyl)pyrrolidin-3-yl]oxy}-1-oxo-2,3-dihydro-1H-isoindol-2-yl)piperidine-2,6-dione] | 16.9 |
| 0.0101 | 33.92 | 0.00169 | CC(C)(O)c1ccc2cc(CN3CC[C@H](Oc4ccc5c(c4)CN([C@H]4CCC(=O)NC4=O)C5=O)C3)ccc2n1 [(3S)-3-(5-{[(3S)-1-{[2-(2-hydroxypropan-2-yl)quinolin-6-yl]methyl}pyrrolidin-3-yl]oxy}-1-oxo-2,3-dihydro-1H-isoindol-2-yl)piperidine-2,6-dione] | 12.89 |
| 0.00928 | 36 | 0.00537 | Cc1nc(N2CCOCC2)nc2ccc(CN3CC[C@H](Oc4ccc5c(c4)CN(C4CCC(=O)NC4=O)C5=O)C3)cc12 (stereo partly drawn) [3-(5-{[(3S)-1-{[4-methyl-2-(morpholin-4-yl)quinazolin-6-yl]methyl}pyrrolidin-3-yl]oxy}-1-oxo-2,3-dihydro-1H-isoindol-2-yl)piperidine-2,6-dione] | 7.12 |
| ≥ 10 | 69.445 | 0.0227 | Cc1cc(F)c2cc(CN3CC[C@H](Oc4ccc5c(c4)CN(C4CCC(=O)NC4=O)C5=O)C3)ccc2n1 (stereo partly drawn) [3-(5-{[(3S)-1-[(4-fluoro-2-methylquinolin-6-yl)methyl]pyrrolidin-3-yl]oxy}-1-oxo-2,3-dihydro-1H-isoindol-2-yl)piperidine-2,6-dione] | 24.82 |
| 0.00937 | 34.08 | 0.0126 | O=C1CCC(N2Cc3cc(O[C@H]4CCN(Cc5ccc6nc(N7CCC[C@@]78CCOC8)ncc6c5)C4)ccc3C2=O)C(=O)N1 (stereo partly drawn) [3-(5-{[(3S)-1-({2-[(5S)-7-oxa-1-azaspiro[4.4]nonan-1-yl]quinazolin-6-yl}methyl)pyrrolidin-3-yl]oxy}-1-oxo-2,3-dihydro-1H-isoindol-2-yl)piperidine-2,6-dione] | 9.64 |
| 0.104 | 36 | 0.0143 | O=C1CCC(N2Cc3cc(O[C@H]4CCN(Cc5cc6cc(F)ccc6cn5)C4)c(F)cc3C2=O)C(=O)N1 (stereo partly drawn) [3-(6-fluoro-5-{[(3S)-1-[(6-fluoroisoquinolin-3-yl)methyl]pyrrolidin-3-yl]oxy}-1-oxo-2,3-dihydro-1H-isoindol-2-yl)piperidine-2,6-dione] | 11.55 |
